# Data published in patent US8133471B2, “CLK-peptide and SLK-peptide” (New York University, priority 2003, dated 2012).
# What was measured:
# [1] = test system: Human melanoma (M21) cells; assay: M21 cell adhesion, CLK-peptide combined with mAb HUIV26 (Example 10); assay type: cell-based; settings: data not shown
# Protocol: FIG. 10 Effect of mAb HUIV26 in Combination with CLK-Peptide on Adhesion of M21 Cells to Denatured Collagen Type IV. Microtiter wells were coated with denatured collagen type-IV. M21 cells were allowed to bind to the coated substrates in the presence of CLK-peptide, mAb HUIV26, or both.
# The effects of CLK-peptide, mAb HUIV26, and the combination of both on tumor cell adhesion were examined in vitro. Non-tissue culture treated 48-well microtiter plates were coated overnight at 4° C. with either native or denatured collagen type-IV (5 μg/ml). The plates were then blocked with 1% BSA in PBS for 1 hour at 37° C. Human melanoma (M21) cells at 10^5 cells/well in adhesion buffer were allowed to attach to the coated wells in the presence of either CLK-peptide (100 μg/ml), or mAb HUIV26 (100 μg/ml), or both together (CLK-peptide 25 μg/ml, mAb HUIV26 100 μg/ml). The cells were washed 2× with PBS, stained with crystal violet and destained with 10% acetic acid. Cell adhesion was quantified by measuring the O.D. of eluted dye at 600 nm. Data bars represent the mean O.D.±standard deviation from triplicate wells.
# [2] = test system: Human melanoma cells (M21); assay: M21 cell adhesion to denatured or native collagen type-IV or fibronectin (Example 9); assay type: cell-based
# Protocol: Non-tissue culture treated 48-well plates were coated with denatured collagen type-IV at 10 μg/ml. […] Cell adhesion was quantified by measuring the O.D. of eluted dye at 600 nm. Data bars represent the mean O.D.±standard deviation from triplicate wells. Assays were completed 2 to 3 times with similar results.
# Non-tissue culture treated 48-well plates were coated with native collagen type-IV or fibronectin at 10 μg/ml. Human melanoma cells (M21) were allowed to attach to the coated wells in the presence or absence of CLK-Peptide or control peptide CTW at 0-100 μg/ml. Cell adhesion was quantified by measuring the O.D. of eluted dye at 600 nm. Data bars represent the mean O.D.±standard deviation from triplicate wells. Assays were completed 2 to 3 times with similar results. A. Adhesion to native collagen type-IV. B. Adhesion to Fibronectin.
# Adhesion assays were performed to study the effects of CLK-peptide on tumor cell adhesion in vitro. Microtiter wells were coated with either native collagen type-IV or the control ECM protein fibronectin. Malignant melanoma cells (M21) were allowed to bind to the coated substrates in the presence or absence of CLK peptide or a control peptide, CTW.
substance,measurement,setting,value
"H-CLKQNGGNFSLG-OH [CLK-peptide, NH2-C-L-K-Q-N-G-G-N-F-S-L-G-COOH]",effect on M21 cell adhesion to native collagen type-IV,[1],neither had any effect
same,effect on M21 cell adhesion to fibronectin,[2]; 0-100 μg/ml,Neither CLK-Peptide nor the control peptide had any effect
same,effect on M21 cell adhesion to native triple helical collagen type-IV,[2]; 0-100 μg/ml,Neither CLK-Peptide nor the control peptide had any effect
same,maximal inhibition of M21 cell attachment to denatured collagen type-IV,[2]; at 100 μg/ml,approximately 65%
